{"source": "patent US20130197085A1", "about": "“AGENT AND METHOD FOR STABILIZING MEMBRANE PROTEIN” (priority 2007, published 2013)", "key": {"D482G BSEP": {"target": "T1, D482G BSEP (Homo sapiens, UniProt O95342, D482G/L339V)", "T1 construct": "expressed in transfected cells; host or cells: MDCKII cells infected with recombinant adenovirus", "T1 sequence (O95342 whole entry L339V/D482G)": "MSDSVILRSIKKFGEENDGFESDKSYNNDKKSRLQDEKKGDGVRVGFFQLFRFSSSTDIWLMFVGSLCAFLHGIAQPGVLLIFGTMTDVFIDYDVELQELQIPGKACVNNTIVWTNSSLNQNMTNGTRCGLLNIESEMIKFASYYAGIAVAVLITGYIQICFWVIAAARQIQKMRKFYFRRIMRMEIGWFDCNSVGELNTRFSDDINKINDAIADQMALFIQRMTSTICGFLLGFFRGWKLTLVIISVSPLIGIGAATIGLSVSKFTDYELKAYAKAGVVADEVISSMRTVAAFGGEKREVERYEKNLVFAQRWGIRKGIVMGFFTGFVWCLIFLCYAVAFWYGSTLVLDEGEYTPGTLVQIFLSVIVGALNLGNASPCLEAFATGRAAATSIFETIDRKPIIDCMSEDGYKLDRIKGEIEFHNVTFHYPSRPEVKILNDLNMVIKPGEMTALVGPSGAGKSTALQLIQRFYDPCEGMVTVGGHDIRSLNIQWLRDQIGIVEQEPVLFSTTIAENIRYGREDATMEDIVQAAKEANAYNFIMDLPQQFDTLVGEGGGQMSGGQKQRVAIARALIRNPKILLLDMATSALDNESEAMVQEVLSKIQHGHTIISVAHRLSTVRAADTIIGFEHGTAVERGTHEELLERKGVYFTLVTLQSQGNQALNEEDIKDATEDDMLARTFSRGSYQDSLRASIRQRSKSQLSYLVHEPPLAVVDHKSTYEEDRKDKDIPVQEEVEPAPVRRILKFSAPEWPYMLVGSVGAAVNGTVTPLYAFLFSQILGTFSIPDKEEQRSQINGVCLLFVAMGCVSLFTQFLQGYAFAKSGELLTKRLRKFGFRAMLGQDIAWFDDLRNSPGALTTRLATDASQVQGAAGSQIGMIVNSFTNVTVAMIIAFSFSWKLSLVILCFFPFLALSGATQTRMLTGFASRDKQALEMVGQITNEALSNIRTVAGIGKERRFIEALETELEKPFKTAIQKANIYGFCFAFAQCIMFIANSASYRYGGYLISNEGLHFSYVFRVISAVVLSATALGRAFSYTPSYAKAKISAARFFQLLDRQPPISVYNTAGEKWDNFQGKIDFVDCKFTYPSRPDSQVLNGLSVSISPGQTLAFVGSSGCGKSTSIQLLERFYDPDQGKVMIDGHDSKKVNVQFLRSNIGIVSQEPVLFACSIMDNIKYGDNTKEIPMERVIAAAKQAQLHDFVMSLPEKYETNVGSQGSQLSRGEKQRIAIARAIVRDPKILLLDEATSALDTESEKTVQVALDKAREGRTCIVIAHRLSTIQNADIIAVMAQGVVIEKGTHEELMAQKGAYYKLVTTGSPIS", "experiment": "Brefeldin A washing experiment, maturation of BSEP in MDCKII cells", "assay_type": "cell-based", "conditions": "1 mM 4PBA", "description": "(§1) MDCKII cells were dispersed on a 6-well plate, resulting in a density of 2.5×10^5 cells/well. After completion of the culture for 24 hours, the confluent cells were infected with recombinant adenoviruses having the cDNAs of wild-type, E297G and D482G BSEPs, and GFP, at 200 MOI. After completion of the infection, the cells were cultured for 12 hours. Thereafter, in order to inhibit the transport of BSEP from the endoplasmic reticulum to the Golgi body, the cells were treated in the presence or absence of 5 μg/ml brefeldin A (Sigma). After completion of the treatment for 2 hours, in the presence or absence of brefeldin A, 4PBA was added to the cells to a concentration of 1 mM. At the time point of 12 hours after the 4PBA treatment, a crude membrane fraction was prepared. The obtained fraction was separated by 6% SDS-PAGE, and Western blotting was then carried out.\n(§2) The promotion of a process of converting an immature BSEP existing in the endoplasmic reticulum to a mature BSEP existing on the cell surface is considered to be a post-translation mechanism that may be associated with an increase in the expression of the mature BSEP on the cell surface. In order to evaluate the effects of the 4PBA treatment on the maturation of a BSEP, the transport of the BSEP from the endoplasmic reticulum to the Golgi body was inhibited with brefeldin A (BFA), the BFA was then washed out, and the maturation rate of the BSEP on MDCKII cells was measured. BFA is an agent for inducing the accumulation of an immature BSEP existing in the endoplasmic reticulum (FIGS. 5A and 5B). The maturation rate was evaluated by washing out such BFA and then measuring an increased amount of the band density of a mature BSEP over time according to Western blotting. The band density of the mature BSEP was calculated by subtracting the band density at 0 (zero) hour from the band density at each measurement time (FIG. 5B). […] In addition, in the case of mature BSEPs, the expression levels were not changed until 3 hours after the washing out of BFA, regardless of the presence or absence of 4PBA. […] At the time point 8 hours after the washing out of BFA, the MDCKII cells treated with 4PBA were compared with the MDCKII cells that had not been treated with 4PBA. As a result, the expression level of a mature BSEP in the MDCKII cells treated with 4PBA was higher than the same expression level in the MDCKII cells that had not been treated with 4PBA."}, "E297G BSEP": {"target": "T2, E297G BSEP (Homo sapiens, UniProt O95342, E297G/L339V)", "T2 construct": "expressed in transfected cells; host or cells: MDCKII cells infected with recombinant adenovirus", "T2 sequence (O95342 whole entry E297G/L339V)": "as the sequence (O95342 whole entry L339V/D482G) above, with E297G, G482D counted along it", "experiment": "Brefeldin A washing experiment, maturation of BSEP in MDCKII cells", "assay_type": "cell-based", "conditions": "1 mM 4PBA", "description": "as §1, §2"}, "wild-type BSEP": {"target": "T3, wild-type BSEP (Homo sapiens, UniProt O95342, L339V)", "T3 construct": "expressed in transfected cells; host or cells: MDCKII cells infected with recombinant adenovirus", "T3 sequence (O95342 whole entry L339V)": "as the sequence (O95342 whole entry L339V/D482G) above, with G482D counted along it", "experiment": "Brefeldin A washing experiment, maturation of BSEP in MDCKII cells", "assay_type": "cell-based", "conditions": "1 mM 4PBA", "description": "as §1, §2"}, "[1]": {"target": "T4, BSEP on canalicular membrane (Rattus norvegicus, UniProt O70127)", "T4 construct": "from tissue; host or cells: liver of male SD rats: in vivo for A27, canalicular membrane vesicles for A28 and A29", "T4 sequence (O70127 1-1321)": "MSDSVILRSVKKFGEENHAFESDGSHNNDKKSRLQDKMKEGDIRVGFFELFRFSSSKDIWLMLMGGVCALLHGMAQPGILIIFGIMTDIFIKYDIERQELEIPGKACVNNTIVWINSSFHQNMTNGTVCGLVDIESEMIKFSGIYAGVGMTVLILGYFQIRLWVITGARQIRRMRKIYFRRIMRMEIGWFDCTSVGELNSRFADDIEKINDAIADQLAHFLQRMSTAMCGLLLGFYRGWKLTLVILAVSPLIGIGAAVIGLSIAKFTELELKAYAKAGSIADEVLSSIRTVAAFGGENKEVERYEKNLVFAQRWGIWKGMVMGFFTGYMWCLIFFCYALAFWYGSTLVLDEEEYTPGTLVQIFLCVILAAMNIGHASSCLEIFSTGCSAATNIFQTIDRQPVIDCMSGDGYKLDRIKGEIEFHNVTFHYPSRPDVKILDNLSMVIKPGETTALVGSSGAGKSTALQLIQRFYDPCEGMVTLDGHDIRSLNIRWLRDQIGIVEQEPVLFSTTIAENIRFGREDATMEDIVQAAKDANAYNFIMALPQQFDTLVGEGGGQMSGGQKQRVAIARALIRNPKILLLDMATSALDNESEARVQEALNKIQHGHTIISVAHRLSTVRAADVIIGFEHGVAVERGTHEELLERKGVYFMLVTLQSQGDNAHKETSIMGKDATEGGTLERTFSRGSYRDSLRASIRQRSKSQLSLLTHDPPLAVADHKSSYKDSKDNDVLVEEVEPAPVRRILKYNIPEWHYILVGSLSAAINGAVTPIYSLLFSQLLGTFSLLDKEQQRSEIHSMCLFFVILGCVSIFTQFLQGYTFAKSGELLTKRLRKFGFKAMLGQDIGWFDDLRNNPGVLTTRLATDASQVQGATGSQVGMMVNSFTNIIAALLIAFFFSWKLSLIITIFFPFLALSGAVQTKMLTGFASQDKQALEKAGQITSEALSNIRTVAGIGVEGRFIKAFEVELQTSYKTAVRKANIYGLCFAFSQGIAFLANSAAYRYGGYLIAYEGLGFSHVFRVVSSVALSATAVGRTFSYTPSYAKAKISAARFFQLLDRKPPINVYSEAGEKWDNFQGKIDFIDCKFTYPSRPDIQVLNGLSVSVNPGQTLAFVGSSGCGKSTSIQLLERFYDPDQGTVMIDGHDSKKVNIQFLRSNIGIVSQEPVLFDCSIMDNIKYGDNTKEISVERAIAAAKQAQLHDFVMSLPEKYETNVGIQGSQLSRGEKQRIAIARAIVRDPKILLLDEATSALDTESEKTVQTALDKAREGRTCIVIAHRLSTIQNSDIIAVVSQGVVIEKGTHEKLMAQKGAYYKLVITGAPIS", "experiment": "Transport assay using canalicular membrane vesicles (CMVs) from treated rats", "assay_type": "in vivo, SD rat", "description": "[…] 4PBA or a vehicle was given to a male SD rat (6- to 7-week-old) for 10 days, divided over 3 administrations. Canalicular membrane vesicles were prepared from the liver of the rat (Akita et al., Biochim Biophys Acta, 1511: 7-16, 2001), and they were then used in Western blotting and a transport assay. Such transport assay was carried out by a rapid filtration method (Hayashi et al., Biochim Biophys Acta, 1738: 54-62, 2005)."}, "[2]": {"conditions": "8 hours after the washing out of BFA"}, "[3]": {"conditions": "immediately after the washing out of BFA (hour 0)"}}}
{"smiles": "O=C(O)CCCc1ccccc1", "note": "[4PBA, 4-phenylbutyric acid]", "values": [{"measurement": "expression level of mature BSEP, 4PBA-treated vs not treated cells", "setting": "D482G BSEP; [2]", "result": "higher"}, {"measurement": "expression level of immature BSEP in the endoplasmic reticulum, with vs without 4PBA", "setting": "D482G BSEP; [3]", "result": "almost the same"}, {"measurement": "expression level of mature BSEP, 4PBA-treated vs not treated cells", "setting": "E297G BSEP; [2]", "result": "higher"}, {"measurement": "expression level of immature BSEP in the endoplasmic reticulum, with vs without 4PBA", "setting": "E297G BSEP; [3]", "result": "almost the same"}, {"measurement": "expression level of mature BSEP, 4PBA-treated vs not treated cells", "setting": "wild-type BSEP; [2]", "result": "higher"}, {"measurement": "expression level of immature BSEP in the endoplasmic reticulum, with vs without 4PBA", "setting": "wild-type BSEP; [3]", "result": "almost the same"}, {"measurement": "ATP-dependent uptake of [^3H] TC by CMVs, higher than CMVs from vehicle-treated rats", "setting": "[1]; CMVs from SD rats treated at 0.6 g/kg/day for 10 days", "result": 3, "unit": "times"}, {"measurement": "Vmax value of [^3H] TC uptake by CMVs", "setting": "[1]; CMVs from SD rats treated with 4PBA at 0.6 g/kg/day for 10 days", "result": "1,000±110"}]}
